Where two headings read alike, the source gives them in different places.
Key:
[1] = test system: L1210 mouse leukemia system; conditions: literature report; cited from earlier work
[2] = test system: human acute lymphoblastic leukemia line CEM; conditions: literature report; cited from earlier work
SK-Br-3 cells = assay: clonogenic in vitro cytotoxicity assay; assay type: cell-based, human; conditions: for IC50: read-out: IC50 towards SK-Br-3 cells
Description: (§1) The KB (ATCC CCl-17) cell line is of human epithelial origin. The SK-BR-3 (ATCC HTB-30) cell line was established from a human breast adenocarcinoma. The human colon tumor cell lines COLO 205 (ATCC CCL-222) and HT-29 (ATCC HTB 38), the human melanoma cell line A-375 (ATCC CRL 1619), the human Burkitts lymphoma cell line Ramos (ATCC CRL-1596) and the human myeloid leukemia cell line HL-60 (ATCC CCL-240) were all obtained from ATCC, Maryland. Cell lines were grown in Dulbecco's modified Eagles Medium (DMEM, Biowhittaker, Walkersville, Md.) with L-glutamine supplemented with 10% fetal bovine serum (Hyclone, Logan, Utah) and 50 μg/mL gentamycin sulfate (Life Technologies, Rockville, Md.). Cells were maintained at 36-37.5° C. in a humidified atmosphere that contained 6% CO2.
(§2) The cytotoxicity study was performed using a clonogenic assay. The test cell lines (KB and SK-Br-3) were plated into 6-well culture dishes at a constant number of 1000 cells per well. Cells were incubated with varying concentrations (0 to 3 nM) of the various ansamitocins or maytansine for 72 hours. The medium was then aspirated from the plates and replaced with fresh medium. Cultures were allowed to grow, and form colonies, for a total of 7-10 days after plating. The cultures were then fixed and stained with 0.2% crystal violet in 10% formalin/PBS and colonies were counted. Plating efficiency of non-treated cells (medium alone) was determined by dividing the number of colonies counted by the number of cells plated. Surviving fraction of cells exposed to the drugs was determined by dividing the number of colonies in wells that were exposed to the drug by the number of colonies in the control wells.

[3] = test system: human nasopharyngeal carcinoma cells; conditions: literature report; cited from earlier work
KB cells [4] = conditions: literature report, cited from earlier work
L1210 cells = L1210 cells treated in vivo; untreated control 3.2 to 5.8%; cited from earlier work
COLO 205-MDR cell line = assay: in-vitro activity of ansamitocin derivatives; assay type: cell-based, human; conditions: 96 hour exposure; read-out: IC50 against COLO 205-MDR cell line
Description: (§3) All reagents were purchased from the Aldrich Chemical Co., New Jersey, or other commercial sources. Maytansinol (11) was prepared as described previously (U.S. Pat. No. 6,333,410). Nuclear Magnetic Resonance (^1H NMR) spectra were acquired on a Bruker 400 MHz instrument and mass spectra were acquired on a Bruker Daltonics Esquire 3000 instrument using electrospray ionization. In vitro cytotoxicity assays are performed as previously described (see U.S. Pat. No. 7,276,497 and W. C. Widdison et al., J. Med. Chem., 2006, 49, 4392-4408).

KB cell line = assay: in-vitro activity of ansamitocin derivatives; assay type: cell-based, human
Description: The in vitro cytotoxicity of ansamitocin derivatives of the present invention can be measured by methods previously disclosed (U.S. Pat. No. 7,276,497 and Widdison et al., J. Med. Chem., 49; 4392, 2006, both expressly incorporated herein by reference). For example, cell lines such as the human breast carcinoma line SK-Br-3, or the human epidermoid carcinoma cell line KB, can be used for the assessment of cytotoxicity of these new ansamitocin derivatives. Cells to be evaluated are exposed to the compounds for 72 hours and the surviving fractions of cells measured in direct assays by known methods. IC50 values are calculated from the results of the assays.
as §3
The KB (ATCC CCl-17) cell line is of human epithelial origin. The SK-BR-3 (ATCC HTB-30) cell line was established from a human breast adenocarcinoma. […]

COLO 205 cell line = assay: in-vitro activity of ansamitocin derivatives; assay type: cell-based, human; conditions: 96 hour exposure; read-out: IC50 against COLO 205 cell line
Description: as §3, §1

KB cells [5] = assay: clonogenic in vitro cytotoxicity assay; assay type: cell-based, human; conditions: 72 hours incubation
Description: as §1, §2

COc1cc2cc(c1Cl)N(C)C(=O)C[C@H](OC(=O)[C@H](C)N(C)C(C)=O)[C@]1(C)O[C@H]1[C@H](C)[C@@H]1C[C@@](O)(NC(=O)O1)[C@H](OC)/C=C/C=C(\C)C2 [maytansine, N-acetyl-N-methyl-L-alanyl ester of maytansinol]
inhibitory activity in vivo [1]: significant inhibitory activity | inhibitory concentration, CEM line [2]: ≥ 10^−7 mg/ml | IC50 (SK-Br-3 cells; Homo sapiens, SK-BR-3, 72 hours incubation): 0.034 nM | inhibition of in vitro growth of human nasopharyngeal carcinoma cells [3]: active inhibitor | IC50 towards cancer cells (Kupchan et al.) (KB cells [4]): 0.0000061 micrograms/mL | cells accumulating in mitosis (L1210 cells): 67%

COc1cc2cc(c1Cl)N(C)C(=O)C[C@H](OC(=O)CCCN(C)C)[C@]1(C)O[C@H]1[C@H](C)[C@@H]1C[C@@](O)(NC(=O)O1)[C@H](OC)/C=C/C=C(\C)C2 [compound 66, Dimethylamino Butyric Acid Ester of Maytansinol]
IC50 (COLO 205-MDR cell line): > 20 nM | IC50 (KB cell line; 96 hour exposure, read-out: IC50 against the KB cell line): 11 to 12 nM | IC50 (COLO 205 cell line): 11 to 12 nM

COc1cc2cc(c1Cl)N(C)C(=O)C[C@H](OC(=O)CCCCC(=O)OCC[Si](C)(C)C)[C@]1(C)O[C@H]1[C@H](C)[C@@H]1C[C@@](O)(NC(=O)O1)[C@H](OC)/C=C/C=C(\C)C2 [14a]
IC50 (COLO 205-MDR cell line): 4.8 nM | IC50 (COLO 205 cell line): 0.4 nM

CCC(=O)O[C@H]1CC(=O)N(C)c2cc(cc(OC)c2Cl)C/C(C)=C/C=C/[C@@H](OC)[C@@]2(O)C[C@H](OC(=O)N2)[C@@H](C)[C@@H]2O[C@@]12C [ansamitocin bearing a C3 propionyl ester]
fold more potent than maytansine towards KB cells (KB cells [5]): 1.3 fold | fold less potent than maytansine (Kupchan et al.) (KB cells [4]; KB cells): about 34.4 fold

CCCCC(=O)O[C@H]1CC(=O)N(C)c2cc(cc(OC)c2Cl)C/C(C)=C/C=C/[C@@H](OC)[C@@]2(O)C[C@H](OC(=O)N2)[C@@H](C)[C@@H]2O[C@@]12C [ansamitocin P4′]
fold more potent than maytansine towards SK-Br-3 cells (SK-Br-3 cells; 72 hours incubation): 17 fold | IC50 (SK-Br-3 cells; 72 hours incubation): 0.002 nM

COc1cc2cc(c1Cl)N(C)C(=O)C[C@H](OC(=O)c1ccc(CSSC)cc1)[C@]1(C)O[C@H]1[C@H](C)[C@@H]1C[C@@](O)(NC(=O)O1)[C@H](OC)/C=C/C=C(\C)C2 [compound 59, 4-((methyldisulfanyl)methyl)benzoic acid ester of maytansinol]
IC50 (COLO 205 cell line): 0.53 nM

COc1cc2cc(c1Cl)N(C)C(=O)C[C@H](OC(=O)CCCCCSSC)[C@]1(C)O[C@H]1[C@H](C)[C@@H]1C[C@@](O)(NC(=O)O1)[C@H](OC)/C=C/C=C(\C)C2 [compound 54, 6-(methyldithio)hexanoic acid ester of maytansinol]
IC50 (COLO 205 cell line): 0.31 nM

COc1cc2cc(c1Cl)N(C)C(=O)CC(OC(=O)CCCCC(=O)O)C1(C)OC1C(C)C1CC(O)(NC(=O)O1)C(OC)C=CC=C(C)C2 (stereo not drawn) [14b, Hexanedioic Acid Ester of Maytansinol]
fold reduction in activity compared to the TMS-protected precursor 14a (KB cell line; KB cell line): 15 fold
